Source: patent US8669260B2, “Ketoconazole-derivative antagonist of human pregnane X receptor and uses thereof” (priority 2008, dated 2014)
Where two headings read alike, the source gives them in different places.

Key:
PXR [1] = molecular target: T1, PXR (Homo sapiens, UniProt O75469); conditions: known potency; cited from earlier work
T1 sequence (O75469 1-434): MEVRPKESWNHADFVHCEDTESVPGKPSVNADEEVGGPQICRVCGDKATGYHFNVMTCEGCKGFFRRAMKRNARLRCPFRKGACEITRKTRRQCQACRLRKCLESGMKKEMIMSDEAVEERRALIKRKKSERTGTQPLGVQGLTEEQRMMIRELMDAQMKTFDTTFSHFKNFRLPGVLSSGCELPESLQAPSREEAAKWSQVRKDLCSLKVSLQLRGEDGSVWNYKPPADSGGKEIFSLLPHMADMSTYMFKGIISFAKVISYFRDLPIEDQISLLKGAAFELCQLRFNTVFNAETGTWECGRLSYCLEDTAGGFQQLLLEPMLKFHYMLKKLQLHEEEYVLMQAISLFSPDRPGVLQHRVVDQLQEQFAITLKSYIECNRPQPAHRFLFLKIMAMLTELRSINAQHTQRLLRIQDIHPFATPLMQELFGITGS

PXR [2] = molecular target: T1, PXR; assay: cell-based; set-up: expressed in transfected cells; host or cells: HepG2
SKOV-3 cells [3] = assay: Chemotherapeutic sensitivity assay in SKOV-3 cells with and without rifampicin
SKOV-3 xenografts = assay: In vivo SKOV-3 xenograft studies in NOD.SCID mice
Experimental: HepG2 cells were processed into slides using histogel (Richard-Allan Scientific, Kalamazoo, Mich.). The slides were placed in a 59° C. oven in the morning of the experiments. For cells and tissue specimens, after de-waxing and re-hydrating the slides, slides were placed in a sodium citrate solution, pH 6.0 (Vector labs, Burlingame, Calif.) for 20 minutes. […] Cell sections were then immunostained with the biotin-streptavidin system from Vector Labs per manufacturer's instructions. Institutional IRB approval (#2007-902) was obtained for use of tissue sections from patients with serous papillary ovarian carcinoma and benign ovaries.
2×10^6 SKOV-3 cells were implanted by subcutaneous route into both flanks of NOD.SCID mice. On day 35 after inoculation, the mean (±SD) (n=32) volume of implanted tumor was 8 mm^3 (±3.5) (range: 4.3-18.3). […] Control intravenous injections consisted of 30% polyethylene glycol. The tumor volume was calculated twice a week using the following formula: Length (mm)×[Width (mm)]^2×π/6 (25).

LS174T cells = assay: LS174T cell growth (trypan blue counting, doubling time); conditions: within 72 hours
HepG2 cells = conditions: for HepG2 cell proliferation (in words): 48 hours
[4] = tested on: Caco-2, LS174T, SKOV3 and CRL cell lines; assay: Drug induced cytotoxicity by MTT assay in cancer and fibroblast cell lines
PXR [5] = molecular target: T1, PXR; assay: PXR transactivation assay (activation mode), HepG2 cells transfected with human PXR-pcDNA3 and CYP3A-Luc; assay type: cell-based; set-up: expressed in transfected cells; host or cells: HepG2
CYP3A4 = CYP3A4 (Homo sapiens, UniProt P08684); assay: Time-dependent CYP3A4 inhibition assay in human liver microsome (midazolam 1-hydroxylase); conditions: for Maximum % Inhibition, midazolam-1-hydroxylase activity / IC50: human liver microsome; for IC50: read-out: IC50, midazolam-1-hydroxylase activity
CYP3A4, sequence (P08684 whole entry): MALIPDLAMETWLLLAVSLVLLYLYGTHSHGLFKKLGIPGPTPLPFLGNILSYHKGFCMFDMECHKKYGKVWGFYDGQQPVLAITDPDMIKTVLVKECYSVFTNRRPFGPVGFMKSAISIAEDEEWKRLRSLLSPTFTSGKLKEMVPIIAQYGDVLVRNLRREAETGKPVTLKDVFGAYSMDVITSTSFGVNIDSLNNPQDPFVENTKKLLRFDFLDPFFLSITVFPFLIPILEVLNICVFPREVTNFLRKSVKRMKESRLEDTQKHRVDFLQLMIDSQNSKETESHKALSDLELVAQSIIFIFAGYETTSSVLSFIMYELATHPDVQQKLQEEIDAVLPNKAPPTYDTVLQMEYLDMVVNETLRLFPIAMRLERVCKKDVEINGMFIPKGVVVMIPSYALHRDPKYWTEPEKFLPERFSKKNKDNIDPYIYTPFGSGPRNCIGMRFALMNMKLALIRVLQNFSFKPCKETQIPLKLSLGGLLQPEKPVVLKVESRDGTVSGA
Experimental: Briefly, test articles were incubated in a reaction mixture containing 5 μM midazolam, 0.1 mg/ml human liver microsomes and 1 mM NADPH for 5 min. The enzyme reaction was stopped by adding an equal volume of quench solution (H2O:acetonitrileformic-acid=94:5:1) containing ^13C-1-hydroxymdiazolam (0.1 μM final) as the internal standard. In order to test time-dependency of CYP3A4 inhibition, an identical reaction was started without midazolam and the reaction mixture was incubated for 30 min. After the pre-incubation, 5 μM midazolam was added and incubated for 5 min before the quench solution was added. The samples were centrifuged at 1,500 RPM for 15 min to precipitate denatured microsomal proteins. […] A percent CYP3A4 inhibition (% Inh) was calculated by the following equation:
[formula] CDMSO and Ccompound are concentrations of 1-hydroxymidazolam in the vehicle control and a compound tested, respectively. A plot of concentration-% Inh was then created and from the plot, IC50 and Maximum % Inhibition were reported.

[6] = tested on: PXR target genes in SKOV-3 cells; assay: Quantitative RT-PCR of PXR target genes in SKOV-3 cells; assay type: cell-based; conditions: 0-1.0 μM
Experimental: In brief, total RNA was isolated using the Qiagen RNeasy Mini kit (QIAGEN, Inc., Valencia, Calif.). Reverse transcription was performed using Superscript first strand synthesis system (Invitrogen, Carlsbad, Calif.). For semi-quantitative PCR, one-tenth the reverse transcription (RT) reaction products were subjected to PCR amplification for 25 cycles in a singleplex format. […] Real time PCR for cDNA quantification was performed using TaqMan universal PCR master mix and TaqMan probes using, VIC as the 5′ reporter fluorochrome and tetramethylrhodamine (TAMRA) as the 3′ quencher fluorochrome. […] The reference gene, PPIA (Cyclophilin A), was a VIC/MGB probe (Applied Biosystems, Foster City, Calif.). The standard curves for PXR, CYP3A4, CYP2B6, UGT1A1, MDR1, and MRP-2 cDNA were constructed to ensure linearity in the concentration range studied. The PXR assay (ID #Hs01114267_m1) and the UGT1A1 assay (ID # Hs02511055_s1) were ordered through Applied Biosystems. […] Amplification was detected and analyzed using the ABI PRISM 7700 sequence detector with SDS 2.1 analysis software (Applied Biosystems, Foster City, Calif.). The relative fold increase in mRNA in samples compared with controls was calculated using the comparative CT method.

SKOV-3 cells [7] = conditions: MTT; 48-96 hr exposure (T1317: 48 hours, normalized to GSK1385)
LXR = conditions: known potency; cited from earlier work
[8] = non-linear regression, activation by 10 μM rifampicin, read-out: PXR Inhibition IC50

**Q.** What does the source list for rifampicin?
**A.** EC50 (PXR [1]): 1 to 2 µM; IC50 (PXR [2]; [8]): > 50 µM; effect on cytotoxicity of ixabepilone, paclitaxel and SN-38 (in words) (SKOV-3 cells [3]; SKOV-3 cells, rifampicin 20 μM): significantly decreased the cytotoxicity; Ki67 stained cells, mean (SEM) (SKOV-3 xenografts; SKOV-3 xenografts, NOD.SCID mice, 40 mg/kg/day i.v., control 577.0 (21), p<0.00001): 937.0 (37); tumor size at necropsy and tumor weight (in words) (SKOV-3 xenografts; day 60, versus control): significantly larger tumors; tumor volumes (in words) (SKOV-3 xenografts; days 45-60, versus controls): significantly higher; growth rate constant (k=ln 2/g) (LS174T cells; PXR knockdown LS174T cells): ~0.008 hr^−1; growth rate constant (k=ln 2/g) (LS174T cells; vector-transfected LS174T cells): ~0.02 hr^−1; HepG2 cell proliferation (in words) (HepG2 cells; single agent): concentration dependent proliferation of cells

**Q.** Which “% increased survival relative to ixabepilone without rifampicin” value (SKOV-3 cells [3]; SKOV-3, ixabepilone 0.1-50 μM in the presence of rifampicin, average) does the source give for C/C(=C\c1csc(C)n1)[C@@H]1C[C@@H]2O[C@]2(C)CCC[C@H](C)[C@H](O)[C@@H](C)C(=O)C(C)(C)[C@@H](O)CC(=O)N1 [ixabepilone] here?
**A.** The value was about 20%.

**Q.** Which results are given for CC(=O)O[C@H]1C(=O)[C@@]2(C)[C@H]([C@H](OC(=O)c3ccccc3)[C@]3(O)C[C@H](OC(=O)[C@H](O)[C@@H](NC(=O)c4ccccc4)c4ccccc4)C(C)=C1C3(C)C)[C@]1(OC(C)=O)CO[C@@H]1C[C@@H]2O [paclitaxel]?
**A.** IC50 (SKOV-3 cells [3]; Homo sapiens, SK-OV-3, read-out: IC50 with rifampicin (R)): ~40 µM; IC50 (SKOV-3 cells [3]; Homo sapiens, SK-OV-3, read-out: IC50 without rifampicin (no R)): ~4 µM; resistance index induced by rifampicin (SKOV-3 cells [3]; IC50 with rifampicin / IC50 without rifampicin): ~10 fold

**Q.** For CC(=O)N1CCN(c2ccc(OC[C@H]3CO[C@@](C)(c4ccc(Cl)cc4Cl)O3)cc2)CC1 [UCL2158H], which “Maximum % Inhibition Observed” value (PXR [2]) is on record?
**A.** The value was 109%.

**Q.** And the “inhibition of rifampicin-mediated PXR activation (in words)” value (PXR [2]; PXR transactivation assay)?
**A.** The value was “most potent inhibitors of PXR”.

**Q.** And the IC50 (PXR [2]; [8])?
**A.** The IC50 was 14.6 µM.

**Q.** What about the “PXR Inhibition Imax” value (PXR [2]; non-linear regression, maximal inhibition of PXR activation with 10 μM rifampicin) of the same molecule?
**A.** The value was 128%.

**Q.** What about the “cytotoxicity (in words)” value ([4]; epithelial cells, concentration range up to 100 μM, MTT) of the same molecule?
**A.** The value was “less cytotoxic than ketoconazole”.

**Q.** And the “Maximum % Activation Observed” value (PXR [5]; PXR transactivation relative to 10 μM rifampicin, HepG2, 24 h, 50 μM-2.5 nM)?
**A.** The value was 10%.

**Q.** And the EC50 (PXR [5]; non-linear regression analysis, read-out: PXR Activation EC50)?
**A.** Its EC50 is over 50 µM.

**Q.** And the “Maximum % Inhibition, midazolam-1-hydroxylase activity” value (CYP3A4; +preincubation (30 min))?
**A.** Its value is 67%.

**Q.** What about the “time-dependency of CYP3A4 inhibition” value (CYP3A4; IC50 with vs without 30 min preincubation) of the same molecule?
**A.** The value was “no time-dependency”.

**Q.** What about the IC50 (CYP3A4; +preincubation (30 min)) of the same molecule?
**A.** The IC50 was 19.6 µM.

**Q.** What about the IC50 (CYP3A4; −preincubation) of the same molecule?
**A.** The IC50 was 10.8 µM.

**Q.** What about the “Maximum % Inhibition, midazolam-1-hydroxylase activity” value (CYP3A4; −preincubation) of the same molecule?
**A.** The value was 80%.

**Q.** With CCc1c2c(nc3ccc(O)cc13)-c1cc3c(c(=O)n1C2)COC(=O)[C@]3(O)CC [SN-38] as the molecule, how does the “resistance index induced by rifampicin” value (SKOV-3 cells [3]; IC50(R)/IC50 (no R)) read?
**A.** Its value is about 17.5.

**Q.** What about the IC50 (SKOV-3 cells [3]; read-out: IC50(R), SKOV-3 cells, with rifampicin) of the same molecule?
**A.** Its IC50 is about 3.5 µM.

**Q.** What about the IC50 (SKOV-3 cells [3]; read-out: IC50 (no R), SKOV-3 cells, without rifampicin) of the same molecule?
**A.** Its IC50 is about 0.2 µM.

**Q.** What does the source list for CC(=O)N1CCN(c2ccc(OCC3COC(Cn4ccnc4)(c4ccc(Cl)cc4Cl)O3)cc2)CC1 (centres unmarked) [Ketoconazole, ketoconazole]?
**A.** IC50 (PXR [2]): 18.7 µM; inhibition of rifampicin-mediated PXR activation (in words) (PXR [2]): inhibitor of activated PXR; viability ([4]; across all cell lines tested, effective concentration range for PXR inhibition (two times the IC50 ~30 μM), 48 hours): 65-75%; EC50 (PXR [5]): > 50 µM; PXR activation (in words) (PXR [5]; PXR transactivation assay): weak activator of PXR; HepG2 cell proliferation (in words) (HepG2 cells; combination of ketoconazole and rifampicin): cell proliferation is clearly decreased; non-viable cells (HepG2 cells; HepG2, 48 hours, 50 μM): > 35%

**Q.** Which “PXR target gene induction (in words)” value [6] does the source give for O=S(=O)(c1ccccc1)N(CC(F)(F)F)c1ccc(C(O)(C(F)(F)F)C(F)(F)F)cc1 [T0901317] here?
**A.** Its value is “same profile of gene expression”.

**Q.** What about the “SKOV-3 cell survival (in words)” value (SKOV-3 cells [7]) of the same molecule?
**A.** Its value is “significant increase in cell survival”.
